Source: publication PMC9329436, “Optimization of the 4-anilinoquin(az)oline scaffold as epidermal growth factor receptor (EGFR) inhibitors for chordoma utilizing a toxicology profiling assay platform” (Scientific Reports, 2022)
Where two headings read alike, the source gives them in different places.

What was measured:
[1] = tested on: U-CH1 chordoma cell line; assay: Cell viability assay (alamarBlue, 72 h), U-CH1; format: cell-based, human; conditions: n = 4, 72 h
How it was run: (§1)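 Cells grown in 4:1 IMDM:RPMI with 10% FBS on gel-coated flasks, dosed in quadruplicate 24 h after seeding in 384-well plates.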

[2] = tested on: U-CH2 chordoma cell line; assay: Cell viability assay (alamarBlue, 72 h), U-CH2; format: cell-based, human; conditions: n = 4, 72 h
How it was run: as §1

[3] = biological target: 320 wild-type protein kinases (Homo sapiens, UniProt P19525); format: biochemical; conditions: singlicate
Excerpt: (§2) Table S4. Profiling of two compounds at two concentrations against 320 wild-type protein kinases; singlicate measurement; Residual activities (% of control).

[4] = biological target: 320 wild-type protein kinases (Homo sapiens, UniProt P27037); format: biochemical; conditions: ACV-R2A, singlicate
320 wild-type protein kinases (Homo sapiens, UniProt P27037), sequence (P27037 20-513): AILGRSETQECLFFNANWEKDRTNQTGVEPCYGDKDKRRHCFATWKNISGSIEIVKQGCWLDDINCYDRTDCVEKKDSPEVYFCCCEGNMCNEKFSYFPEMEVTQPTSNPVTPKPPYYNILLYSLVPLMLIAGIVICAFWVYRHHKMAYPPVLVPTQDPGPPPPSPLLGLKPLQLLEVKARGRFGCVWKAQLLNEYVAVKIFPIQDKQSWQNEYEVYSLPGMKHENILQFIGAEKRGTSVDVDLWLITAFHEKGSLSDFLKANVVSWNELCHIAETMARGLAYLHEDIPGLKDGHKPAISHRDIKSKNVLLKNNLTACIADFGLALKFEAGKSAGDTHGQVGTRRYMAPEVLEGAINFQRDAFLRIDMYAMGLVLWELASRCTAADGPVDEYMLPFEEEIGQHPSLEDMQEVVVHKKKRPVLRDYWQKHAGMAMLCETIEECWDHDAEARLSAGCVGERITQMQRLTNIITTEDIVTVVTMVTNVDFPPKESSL
Excerpt: as §2

[5] = biological target: 320 wild-type protein kinases (Homo sapiens, UniProt P28482); format: biochemical; conditions: singlicate
320 wild-type protein kinases (Homo sapiens, UniProt P28482), sequence (P28482 whole entry): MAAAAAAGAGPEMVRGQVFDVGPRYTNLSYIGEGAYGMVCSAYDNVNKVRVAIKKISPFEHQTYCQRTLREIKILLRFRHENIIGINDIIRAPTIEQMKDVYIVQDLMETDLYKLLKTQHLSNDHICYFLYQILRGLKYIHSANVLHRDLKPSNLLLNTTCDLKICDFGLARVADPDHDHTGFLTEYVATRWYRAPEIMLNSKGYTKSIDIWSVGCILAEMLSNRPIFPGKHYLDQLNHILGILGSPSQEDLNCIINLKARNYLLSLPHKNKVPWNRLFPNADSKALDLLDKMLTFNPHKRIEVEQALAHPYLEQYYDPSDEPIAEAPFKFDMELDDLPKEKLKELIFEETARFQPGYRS
Excerpt: as §2

[6] = biological target: 320 wild-type protein kinases (Homo sapiens, UniProt Q5TCX8); format: biochemical; conditions: singlicate
320 wild-type protein kinases (Homo sapiens, UniProt Q5TCX8), sequence (Q5TCX8 whole entry): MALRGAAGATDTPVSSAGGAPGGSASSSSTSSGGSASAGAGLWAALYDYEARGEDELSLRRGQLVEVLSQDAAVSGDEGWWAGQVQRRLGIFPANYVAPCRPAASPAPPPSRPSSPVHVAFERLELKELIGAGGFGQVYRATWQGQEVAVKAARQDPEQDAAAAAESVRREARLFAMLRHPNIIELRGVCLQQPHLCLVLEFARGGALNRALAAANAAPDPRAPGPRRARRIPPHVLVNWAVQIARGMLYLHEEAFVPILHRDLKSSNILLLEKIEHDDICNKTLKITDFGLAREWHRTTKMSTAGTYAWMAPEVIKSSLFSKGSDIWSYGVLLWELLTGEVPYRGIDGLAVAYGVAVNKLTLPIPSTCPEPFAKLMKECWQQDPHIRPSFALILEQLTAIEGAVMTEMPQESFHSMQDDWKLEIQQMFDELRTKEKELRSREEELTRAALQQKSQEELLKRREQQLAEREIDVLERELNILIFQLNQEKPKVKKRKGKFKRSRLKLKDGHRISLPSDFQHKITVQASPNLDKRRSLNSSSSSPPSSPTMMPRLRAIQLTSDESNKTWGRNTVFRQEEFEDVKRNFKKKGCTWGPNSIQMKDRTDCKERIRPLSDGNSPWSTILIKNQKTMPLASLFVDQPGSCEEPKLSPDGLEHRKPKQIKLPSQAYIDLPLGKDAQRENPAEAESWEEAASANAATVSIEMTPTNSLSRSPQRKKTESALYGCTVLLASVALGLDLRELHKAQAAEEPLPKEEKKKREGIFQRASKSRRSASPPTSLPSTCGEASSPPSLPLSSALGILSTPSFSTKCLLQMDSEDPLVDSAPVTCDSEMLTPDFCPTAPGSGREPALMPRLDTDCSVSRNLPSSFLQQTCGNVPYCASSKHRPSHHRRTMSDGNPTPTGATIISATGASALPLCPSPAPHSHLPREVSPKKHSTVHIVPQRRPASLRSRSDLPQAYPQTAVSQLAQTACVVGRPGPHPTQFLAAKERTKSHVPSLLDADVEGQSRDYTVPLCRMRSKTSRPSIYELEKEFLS
Excerpt: as §2

[7] = biological target: T1, Aurora-C (Homo sapiens, UniProt Q9UQB9); assay: 33PanQinase activity assay; format: biochemical; conditions: for Residual activity: Aurora-C, singlicate
T1 sequence (Q9UQB9 1-309): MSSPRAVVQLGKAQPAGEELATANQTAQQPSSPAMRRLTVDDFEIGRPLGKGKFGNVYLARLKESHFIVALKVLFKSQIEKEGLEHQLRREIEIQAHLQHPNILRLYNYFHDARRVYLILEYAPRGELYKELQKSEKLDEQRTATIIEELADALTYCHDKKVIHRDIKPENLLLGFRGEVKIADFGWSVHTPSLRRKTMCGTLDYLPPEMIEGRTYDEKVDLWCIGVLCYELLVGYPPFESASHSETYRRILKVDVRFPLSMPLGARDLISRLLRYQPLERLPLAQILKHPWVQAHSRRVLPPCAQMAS
Excerpt: as §2

[8] = biological target: T2, EPHB2 (Homo sapiens, UniProt P29323); assay: 33PanQinase activity assay; format: biochemical; conditions: for Residual activity: singlicate
T2 sequence (P29323 19-1055): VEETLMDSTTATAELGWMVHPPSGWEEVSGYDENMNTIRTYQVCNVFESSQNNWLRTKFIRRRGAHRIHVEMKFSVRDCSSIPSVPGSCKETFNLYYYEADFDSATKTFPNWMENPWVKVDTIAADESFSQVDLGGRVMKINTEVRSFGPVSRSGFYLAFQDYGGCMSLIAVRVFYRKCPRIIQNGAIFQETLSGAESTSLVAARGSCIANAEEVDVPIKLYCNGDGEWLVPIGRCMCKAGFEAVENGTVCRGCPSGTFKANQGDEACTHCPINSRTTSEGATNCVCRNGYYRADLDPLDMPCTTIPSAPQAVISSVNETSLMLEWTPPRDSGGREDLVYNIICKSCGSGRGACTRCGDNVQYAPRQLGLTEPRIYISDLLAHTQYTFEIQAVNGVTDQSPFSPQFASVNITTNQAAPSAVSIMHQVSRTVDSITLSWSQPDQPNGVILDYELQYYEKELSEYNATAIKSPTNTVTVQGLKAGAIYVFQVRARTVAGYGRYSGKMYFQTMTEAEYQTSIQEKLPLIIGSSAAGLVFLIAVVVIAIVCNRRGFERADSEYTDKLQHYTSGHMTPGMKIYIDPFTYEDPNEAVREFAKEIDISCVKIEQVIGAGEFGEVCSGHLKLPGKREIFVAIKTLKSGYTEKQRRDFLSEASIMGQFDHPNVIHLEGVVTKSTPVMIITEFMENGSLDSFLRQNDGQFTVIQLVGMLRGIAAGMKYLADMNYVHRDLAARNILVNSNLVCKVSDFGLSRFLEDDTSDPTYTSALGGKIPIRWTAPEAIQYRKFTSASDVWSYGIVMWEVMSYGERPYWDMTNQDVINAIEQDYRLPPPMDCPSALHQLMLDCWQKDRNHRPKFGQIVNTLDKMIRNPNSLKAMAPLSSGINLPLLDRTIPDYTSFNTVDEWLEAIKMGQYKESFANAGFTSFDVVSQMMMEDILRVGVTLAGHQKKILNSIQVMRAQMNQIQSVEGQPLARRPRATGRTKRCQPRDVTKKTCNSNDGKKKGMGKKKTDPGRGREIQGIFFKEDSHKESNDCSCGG
Excerpt: as §2

[9] = biological target: ERBB2 (Homo sapiens, UniProt P04626); assay: 33PanQinase activity assay; format: biochemical; conditions: for Residual activity: singlicate
Excerpt: as §2

[10] = biological target: ERBB4 (Homo sapiens, UniProt Q15303); assay: 33PanQinase activity assay; format: biochemical; conditions: for Residual activity: singlicate
ERBB4, sequence (Q15303 26-1308): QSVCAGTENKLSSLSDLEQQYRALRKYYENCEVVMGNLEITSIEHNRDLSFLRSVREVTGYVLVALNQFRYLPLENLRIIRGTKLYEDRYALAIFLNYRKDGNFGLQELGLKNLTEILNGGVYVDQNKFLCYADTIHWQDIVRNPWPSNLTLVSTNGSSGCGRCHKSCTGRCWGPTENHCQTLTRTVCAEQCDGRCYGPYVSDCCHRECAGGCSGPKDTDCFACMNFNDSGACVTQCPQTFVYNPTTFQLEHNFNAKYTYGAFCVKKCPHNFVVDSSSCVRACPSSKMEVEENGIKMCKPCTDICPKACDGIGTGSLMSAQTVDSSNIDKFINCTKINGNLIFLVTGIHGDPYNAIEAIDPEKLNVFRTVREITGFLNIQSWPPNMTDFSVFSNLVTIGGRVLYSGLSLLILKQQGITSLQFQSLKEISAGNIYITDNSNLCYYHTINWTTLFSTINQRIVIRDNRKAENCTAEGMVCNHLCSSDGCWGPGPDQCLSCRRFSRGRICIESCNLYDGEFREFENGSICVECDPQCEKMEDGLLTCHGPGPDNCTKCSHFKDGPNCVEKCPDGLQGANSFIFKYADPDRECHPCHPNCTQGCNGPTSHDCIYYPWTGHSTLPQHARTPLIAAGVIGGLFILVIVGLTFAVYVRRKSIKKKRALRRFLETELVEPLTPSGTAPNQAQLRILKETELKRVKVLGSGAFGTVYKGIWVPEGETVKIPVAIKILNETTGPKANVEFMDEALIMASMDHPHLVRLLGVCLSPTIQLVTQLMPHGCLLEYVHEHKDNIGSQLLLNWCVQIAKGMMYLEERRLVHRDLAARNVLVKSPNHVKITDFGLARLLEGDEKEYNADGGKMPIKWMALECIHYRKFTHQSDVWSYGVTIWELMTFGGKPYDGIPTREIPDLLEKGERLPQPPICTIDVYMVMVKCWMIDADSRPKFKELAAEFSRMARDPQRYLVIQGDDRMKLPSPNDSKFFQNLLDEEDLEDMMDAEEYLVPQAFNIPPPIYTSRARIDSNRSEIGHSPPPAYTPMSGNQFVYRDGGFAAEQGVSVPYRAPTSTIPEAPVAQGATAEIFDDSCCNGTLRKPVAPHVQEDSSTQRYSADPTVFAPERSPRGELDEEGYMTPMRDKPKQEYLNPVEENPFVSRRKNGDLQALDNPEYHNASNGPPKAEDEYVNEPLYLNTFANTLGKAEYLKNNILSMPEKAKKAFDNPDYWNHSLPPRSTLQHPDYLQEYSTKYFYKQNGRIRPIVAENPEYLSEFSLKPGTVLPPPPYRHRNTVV
Excerpt: as §2

[11] = biological target: MAP4K4 (Homo sapiens, UniProt O95819); assay: 33PanQinase activity assay; format: biochemical; conditions: for MAP4K4 inhibition: 10 μM; for Residual activity: singlicate
MAP4K4, sequence (O95819 whole entry): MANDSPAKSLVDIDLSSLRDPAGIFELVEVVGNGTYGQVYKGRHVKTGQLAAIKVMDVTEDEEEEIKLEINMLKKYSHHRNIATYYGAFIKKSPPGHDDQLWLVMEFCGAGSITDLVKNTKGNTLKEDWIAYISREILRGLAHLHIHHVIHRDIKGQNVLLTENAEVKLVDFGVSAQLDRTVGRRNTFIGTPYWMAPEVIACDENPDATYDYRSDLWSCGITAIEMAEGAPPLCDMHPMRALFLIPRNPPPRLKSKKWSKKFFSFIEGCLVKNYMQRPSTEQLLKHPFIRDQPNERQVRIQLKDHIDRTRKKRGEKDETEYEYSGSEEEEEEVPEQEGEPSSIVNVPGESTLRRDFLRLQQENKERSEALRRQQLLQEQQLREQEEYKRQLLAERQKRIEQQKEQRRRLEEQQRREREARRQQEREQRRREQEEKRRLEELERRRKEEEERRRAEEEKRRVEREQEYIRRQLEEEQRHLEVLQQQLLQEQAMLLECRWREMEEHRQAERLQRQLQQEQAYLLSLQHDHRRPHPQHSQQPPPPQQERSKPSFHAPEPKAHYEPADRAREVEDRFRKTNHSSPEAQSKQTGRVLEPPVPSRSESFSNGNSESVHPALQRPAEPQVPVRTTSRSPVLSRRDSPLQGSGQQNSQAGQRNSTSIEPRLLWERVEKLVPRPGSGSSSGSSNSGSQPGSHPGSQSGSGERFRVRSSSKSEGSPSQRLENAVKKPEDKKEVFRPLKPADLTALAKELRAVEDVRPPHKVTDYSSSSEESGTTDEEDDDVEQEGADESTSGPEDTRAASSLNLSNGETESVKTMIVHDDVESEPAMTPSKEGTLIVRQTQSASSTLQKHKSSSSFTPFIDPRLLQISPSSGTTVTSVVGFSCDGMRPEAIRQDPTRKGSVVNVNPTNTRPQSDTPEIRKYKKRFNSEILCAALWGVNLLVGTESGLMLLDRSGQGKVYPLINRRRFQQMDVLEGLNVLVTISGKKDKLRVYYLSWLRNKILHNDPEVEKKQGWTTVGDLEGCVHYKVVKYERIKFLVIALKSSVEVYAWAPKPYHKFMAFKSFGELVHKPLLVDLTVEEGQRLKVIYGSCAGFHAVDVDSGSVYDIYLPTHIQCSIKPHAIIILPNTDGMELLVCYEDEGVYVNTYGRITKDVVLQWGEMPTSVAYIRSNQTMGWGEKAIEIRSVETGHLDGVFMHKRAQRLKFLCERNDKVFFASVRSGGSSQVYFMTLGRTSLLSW
Excerpt: as §2

[12] = biological target: MAP4K5 (Homo sapiens, UniProt Q9Y4K4); assay: 33PanQinase activity assay; format: biochemical; conditions: for Residual activity: singlicate
Excerpt: as §2

[13] = biological target: MKNK1 (Homo sapiens, UniProt Q9BUB5); assay: 33PanQinase activity assay; format: biochemical; conditions: for Residual activity: singlicate
Excerpt: as §2

[14] = biological target: PIM1 (Homo sapiens, UniProt P11309); assay: 33PanQinase activity assay; format: biochemical; conditions: for Residual activity: singlicate
PIM1, sequence (P11309 whole entry): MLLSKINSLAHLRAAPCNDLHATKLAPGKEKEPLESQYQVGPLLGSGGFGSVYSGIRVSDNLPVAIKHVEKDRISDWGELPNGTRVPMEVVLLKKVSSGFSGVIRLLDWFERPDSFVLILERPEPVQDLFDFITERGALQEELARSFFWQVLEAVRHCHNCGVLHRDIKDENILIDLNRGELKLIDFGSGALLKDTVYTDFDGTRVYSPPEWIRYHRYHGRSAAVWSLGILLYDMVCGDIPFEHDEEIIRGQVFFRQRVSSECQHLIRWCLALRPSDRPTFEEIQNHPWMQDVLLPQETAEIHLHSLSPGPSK
Excerpt: as §2

| SMILES | IC50 [1] | IC50 [2] | Residual activity ([3]; EIF2AK2, 1.0E-06 M) | Residual activity ([3]; EIF2AK2, 1.0E-07 M) | Residual activity ([4]; 1.0E-06 M) | Residual activity ([4]; 1.0E-07 M) | Residual activity ([5]; ERK2, 1.0E-06 M) | Residual activity ([5]; ERK2, 1.0E-07 M) | Residual activity ([6]; MLK4, 1.0E-06 M) | Residual activity ([6]; MLK4, 1.0E-07 M) | Residual activity ([7]; 1.0E-06 M) | Residual activity ([7]; 1.0E-07 M) | Residual activity ([8]; EPHB2, 1.0E-06 M) | Residual activity ([8]; EPHB2, 1.0E-07 M) | Residual activity ([9]; ERBB2, 1.0E-06 M) | Residual activity ([9]; ERBB2, 1.0E-07 M) | Residual activity ([10]; ERBB4, 1.0E-06 M) | Residual activity ([10]; ERBB4, 1.0E-07 M) | MAP4K4 inhibition [11] | Residual activity ([11]; MAP4K4, 1.0E-06 M) | further results |
| --- | --- | --- | --- | --- | --- | --- | --- | --- | --- | --- | --- | --- | --- | --- | --- | --- | --- | --- | --- | --- | --- |
| C#Cc1cc(Nc2ncnc3cc(OC)c(OC)cc23)ccc1Cl [Compound 45] | > 100 µM | 35 µM | 77 % of control | 77 % of control | 96 % of control | 101 % of control | 87 % of control | 94 % of control | 83 % of control | 85 % of control | 85 % of control | 98 % of control | 11 % of control | 50 % of control | 11 % of control | 44 % of control | 7 % of control | 34 % of control | > 50% | 48 % of control | Aurora-C inhibition ([7]; 10 μM): > 50%; EPHB2 inhibition ([8]; 10 μM): > 50%; ERBB2 inhibition ([9]; 1 μM): moderate inhibition; ERBB4 inhibition ([10]; 1 μM): moderate inhibition; Residual activity ([11]; MAP4K4, 1.0E-07 M): 87 % of control; MAP4K5 inhibition ([12]; 10 μM): > 50%; Residual activity ([12]; MAP4K5, 1.0E-06 M): 22 % of control; Residual activity ([12]; MAP4K5, 1.0E-07 M): 108 % of control; MKNK1 inhibition ([13]; 10 μM): > 50%; Residual activity ([13]; MKNK1, 1.0E-06 M): 30 % of control; Residual activity ([13]; MKNK1, 1.0E-07 M): 63 % of control; PIM1 inhibition ([14]; 10 μM): > 50%; Residual activity ([14]; PIM1, 1.0E-06 M): 38 % of control; Residual activity ([14]; PIM1, 1.0E-07 M): 73 % of control |
| C#Cc1cc(Nc2ncnc3cc(I)ccc23)ccc1Cl [Compound 41] | 9.1 µM | 16 µM | 58 % of control | 72 % of control | 92 % of control | 96 % of control | 86 % of control | 90 % of control | 85 % of control | 79 % of control | 70 % of control | 89 % of control | 58 % of control | 79 % of control | 78 % of control | 96 % of control | 44 % of control | 92 % of control | > 50% | 41 % of control | ERBB4 inhibition ([10]; 10 μM): > 50%; Residual activity ([11]; MAP4K4, 1.0E-07 M): 73 % of control; Residual activity ([12]; MAP4K5, 1.0E-06 M): 70 % of control; Residual activity ([12]; MAP4K5, 1.0E-07 M): 101 % of control; Residual activity ([13]; MKNK1, 1.0E-06 M): 63 % of control; Residual activity ([13]; MKNK1, 1.0E-07 M): 79 % of control; Residual activity ([14]; PIM1, 1.0E-06 M): 71 % of control; Residual activity ([14]; PIM1, 1.0E-07 M): 85 % of control |
